Experimental data from patent US11642345B2, “Replication stress pathway agent compositions and methods for treating cancer” (Boundless Bio, Inc., priority 2020, dated 2023).
“Also recorded” adds a separate entry of the source.

Legend:
[1] = test system: KRASi resistant tumor cells cultured ex vivo; experiment: KRASi resistant tumor cells implanted into NOD-SCID mice, tumor growth; type: in vivo; settings: adagrasib 50 mg/kg orally once per day
From the text: KRASi resistant tumor cells cultured ex vivo from Example 5 were implanted into NOD-SCID mice. […] Mice were implanted with the KRAS-resistant tumor cells as above.

[2] = test system: Colo320 DM (ecDNA+) and Colo320 HSR (ecDNA−) cells; experiment: MTS cell proliferation assay, 7 days, Colo320 ecDNA+ vs ecDNA−; type: cell-based
Description: (§1) Sensitivity of an ecDNA+ (Colo320 ecDNA+) and an ecDNA− (Colo320 ecDNA−) cell line models to WEE1 inhibition was determined by treating each with increasing concentrations of either adavosertib or PD0166285 over a 7 day period. Cell proliferation was determined using a MTS assay (FIG. 27, top panels), while viability was determined using CellTiter-glo assay (FIG. 27 bottom panels).
(§2) Cell proliferation was determined using a MTS assay (FIG. 36, top panels), while viability was determined using CellTiter-glo assay (FIG. 36, bottom panels).

[3] = test system: HeLa cells; experiment: HeLa colony formation assay, resistance formation to methotrexate (FIG. 32); type: cell-based; settings: 10000 cells plated with methotrexate for 21 days, IC50, 1/3 IC50, or 1/9 IC50
[4] = test system: HeLa cells; experiment: HeLa cell confluence by high-content microscopy over three weeks, with or without 100 nM methotrexate; type: cell-based; settings: for development of methotrexate resistance: in combination with 100 nM methotrexate; for development of methotrexate resistance / cell growth (cell confluence), agent alone: three weeks; for cell growth (cell confluence), agent alone: 10 nM GDC-0575, 100 nM methotrexate, 300 nM-10 μM AZD6738
Description: Cell confluence was measured via high-content microscopy over the time course.
HeLa cells were treated with a WEE1 inhibitor, 0.01-0.3 μM adavosertib alone, with 1 nM-100 nM PD0166285, with 100 nM methotrexate alone, or with a combination of 0.01-0.3 μM adavosertib and 100 nM methotrexate or a combination of 1 nM-100 nM PD0166285 and 100 nM methotrexate over the course of three weeks. Cell confluence was measured via high-content microscopy over the time course.
HeLa cells were treated with a PARG inhibitor, 3-100 μM PD00017273 with (FIG. 35 top panel) or without (FIG. 35 bottom panel) 100 nM methotrexate over the course of 3 weeks. Cell confluence was measured via high-content microscopy over the time course.
Cell confluence was measured via high-content microscopy over the time course. […] However.

[5] = test system: Colo320 ecDNA+ and Colo320 ecDNA− cells; experiment: CellTiter-glo viability assay, 7 days, Colo320 ecDNA+ vs ecDNA−; type: cell-based
Description: as §1, §2

[6] = test system: panel of ecDNA+ cell lines; experiment: Two-week soft-agar 3D colony formation assay, adavosertib (FIG. 31); type: cell-based; settings: five-point dose range, two weeks
Description: FIG. 31 illustrates sensitivity of ecDNA+ cells to inhibition of WEE1 using adavosertib in a 3-dimensional colony formation assay conducted in soft-agar. A panel of ecDNA+ cell lines were interrogated in a two-week soft agar drug sensitivity assay. All lines were treated with a five-point dose range of adavosertib for two weeks and stained with crystal violet to quantify individual colony counts.

[7] = test system: Colo320 DM ecDNA+ and Colo320 HSR ecDNA− cells; experiment: Sensitivity of Colo320 DM and Colo320 HSR to CHK1 inhibitors, seven days (FIG. 13); type: cell-based; settings: CHK2 or ATM inhibition
Description: The sensitivity of an ecDNA+ cell line (Colo320 DM) compared with an ecDNA− cell line (Colo320 HSR) to four structurally distinct CHK1 inhibitors was determined.

[8] = test system: Colo320 ecDNA+ (COLO320 DM) and Colo320 ecDNA− (COLO320 HSR) cells; experiment: Sensitivity of Colo320 ecDNA+ and ecDNA− cells to RNR inhibitors (FIG. 12); type: cell-based; settings: for induction of replication stress marker, phosphorylation at serine positions 317 and 345 of CHK1: Colo320 DM and HSR cells
[9] = test system: parental CT26 WT E3 line; experiment: Culture of parental line with adagrasib; type: cell-based
[10] = test system: CT26WT E3 G12C KRAS mutant tumor cells; experiment: Treatment of CT26WT E3 G12C KRAS mutant tumors in mice, tumor growth (Examples 3 and 4); type: in vivo; settings: adagrasib 50 mg/kg orally once per day
From the text: (§3) Mice were implanted with CT26WT E3 G12C KRAS mutant tumor cells.
as §3

[11] = test system: SNU16 cells; experiment: Long-term cell growth / resistance development in SNU16 cells; type: cell-based, human; settings: for cell growth / development of primary resistance: FIG. 25, 12 weeks, 1 uM infigratinib, 1 uM erlotinib, 10 nM gemcitabine; for cell growth / resistance formation: 9 weeks
Description: Each treatment arm was terminated once the cell number reached 5×10^6.
SNU16 cells were subdivided into five groups and each group of 1×10^6 cells was subjected to treatment with 1 μM infigratinib, 1 μM erlotinib, 1 μM infigratinib and 1 μM erlotinib, 0.1 μM adavosertib and cell growth was recorded over 9 weeks.
SNU16 cells were subdivided into five groups and each group of 1×10^6 cells was subjected to treatment with infigratinib, erlotinib, PD00017273, infigratinib and erlotinib, or infigratinib and PD00017273 and cell growth was recorded over 9 weeks.
SNU16 (CRL-5974) cell line was purchased from ATCC. SNU16 cells were grown in RPMI 1640 medium (Fisher Scientific) with 10% FBS and 100 U/ml penicillin/streptomycin (Fisher Scientific). For the resistance experiments, SNU16 cells were plated at 2 million per T75 flask and were treated with either 1 μM infigratinib (Selleck Chemicals), 1 μM erlotinib (Selleck Chemicals), 10 nM gemcitabine (Sigma Aldrich), or a combination. The media was changed and fresh drug was added at least once per week. The cells were counted over the span of several weeks to measure cell growth.

[12] = test system: infigratinib-resistant SNU16 cells; experiment: Secondary resistance, cell growth of infigratinib-resistant SNU16 cells over 5 weeks; type: cell-based, human; settings: FIG. 26, 1 uM infigratinib, 1 uM erlotinib, 10 nM gemcitabine
Description: The infigratinib-resistant SNU16 cells (generated as shown in FIG. 25) were subdivided into six groups and each group of 1×10^6 cells was subjected to treatment with 1 uM infigratinib, 1 uM erlotinib, 10 nM gemcitabine, or 1 uM erlotinib+10 nM gemcitabine and the cell growth was recorded over 5 weeks. Each treatment arm was terminated once the cell number reached 5×10^6.

[13] = test system: ecDNA+ (Colo320 DM) and ecDNA− (Colo320 HSR) cells; experiment: DNA fiber analysis, replication fork speed; type: cell-based; settings: 16 hr treatment
Description: FIGS. 42A-42B show intrinsic replication fork dysfunction in ecDNA(+) cancer cells is further compromised by RNR inhibition relative to […]. […] The two cell models were then pulse-labeled with the thymidine analogues chlorodeoxyuridine (CldU) and iododeoxyuridine (IdU) for 30 min each (FIG. 42A). Cells were lysed, DNA fibers spread out and immunostained using specific antibodies against CldU and IdU. […] A difference of -0.13 kb/min in replication fork speed between ecDNA+ and […] treated with RNRi was observed. Statistical significance was calculated using nonparametric Kolmogorov-Smirnov test. FIGS. 43A-43B show intrinsic replication fork dysfunction in ecDNA+ cancer cells is further compromised by CHK1 inhibition relative to […]. […] The two cell models were then pulse-labeled with the thymidine analogues chlorodeoxyuridine (CldU) and iododeoxyuridine (IdU) for 30 min each (FIG. 43A). Cells were lysed, DNA fibers spread out and immunostained using specific antibodies against CldU and IdU.

[14] = test system: KRAS amplified ecDNA; experiment: KRAS ecDNA by FISH in metaphase spreads from ex vivo cultures of treated tumors; design: species or system murine
Description: ecDNA were measured in metaphase spreads prepared from ex vivo cultures established from tumors taken from the mice on day of sacrifice. ecDNA counts were determined using FISH for murine KRAS.
Metaphase spreads were prepared from metaphase arrested and fixed ex vivo cultures established from tumors taken from mice in treatment groups and ecDNA was visualized by FISH for murine KRAS.

[15] = test system: ecDNA+ cell lines (SNU16, Colo320 DM, H716, and H2170) and ecDNA− cell lines (DLD1, Colo320 HSR, Lovo, and SW48); experiment: Two-week soft-agar 3D colony formation assay, gemcitabine (FIG. 5); type: cell-based; settings: five-point dose range, two weeks, colony counts
Description: A panel of ecDNA+ and ecDNA− cell lines were interrogated in a two-week soft-agar drug sensitivity assay. All lines were treated with a five-point dose range of gemcitabine for two weeks and stained with crystal violet (FIG. 5, top panel) to quantify individual colony counts by ImageJ analysis (plotted in FIG. 5, bottom panel).

## C=CCn1c(=O)c2cnc(Nc3ccc(N4CCN(C)CC4)cc3)nc2n1-c1cccc(C(C)(C)O)n1 [adavosertib]
[1]; from about 180 mm^3, adavosertib 60 mg/kg orally once per day, PD0166285 0.3 mg/kg ip once per day
  tumor growth: inhibited tumor growth
[2]
  sensitivity of Colo320 ecDNA+ compared with ecDNA− cells, proliferation changes: enhanced sensitivity
[3]
  resistance formation to methotrexate: abrogation of resistance formation to methotrexate
[4]
  development of methotrexate resistance: prevented development of methotrexate resistance
[5]
  sensitivity of Colo320 ecDNA+ compared with ecDNA− cells, viability changes: enhanced sensitivity
[6]
  sensitivity, colony counts: demonstrated sensitivity

## CN(C)CCCOc1ccc(-c2ccc3ncc4c(c3c2)n(C2CCOCC2)c(=O)n4C)cn1 [AZD0156]
[7]
  differential sensitivity between the two lines: neither inhibiting CHK2 with CCT241533 nor inhibiting DDR target, ATM, with AZD0156 revealed any differential sensitivity

## NC(=O)NO [hydroxyurea]
[8]
  induction of replication stress marker, phosphorylation at serine positions 317 and 345 of CHK1: induced the replication stress marker
[8]; ecDNA+ (Colo320 DM) cells, vs vehicle treated
  ecDNA copy number: markedly reduced

## C=C(F)C(=O)N1CCN(c2nc(OC[C@@H]3CCCN3C)nc3c2CCN(c2cccc4cccc(Cl)c24)C3)C[C@@H]1CC#N [adagrasib]
[9]
  sensitivity to the drug in culture: remained sensitive to the drug
[10]; Example 3
  day by which tumors began to exhibit resistance and tumor growth resumed: ≤ 14 days
[10]; Example 4
  delay in tumor growth before tumors developed resistance: about 2 weeks

## CN(Cc1cnc2nc(N)nc(N)c2n1)c1ccc(C(=O)N[C@@H](CCC(=O)O)C(=O)O)cc1 [methotrexate]
[4]
  cell growth (cell confluence), agent alone: initially resulted in little to no cell growth, but after two weeks in culture, the cells began to develop resistance and cell growth resumed

## COc1cc2nc(-c3cc(F)ccc3O)nc(N[C@@H]3CNC[C@H]3C(C)(C)O)c2cc1OC [CCT241533]
[7]
  differential sensitivity between the two lines: neither inhibiting CHK2 with CCT241533 nor inhibiting DDR target, ATM, with AZD0156 revealed any differential sensitivity

## C#Cc1cccc(Nc2ncnc3cc(OCCOC)c(OCCOC)cc23)c1 [erlotinib]
[11]
  cell growth / development of primary resistance: no effect on cell growth on its own
[11]; FIG. 30, 1 μM infigratinib, 1 μM erlotinib, 0.1 μM adavosertib
  cell growth / resistance formation: no effect on cell growth on its own
[11]; FIG. 34
  cell growth / resistance formation: little to no effect on cell growth
[12]
  cell growth / development of secondary resistance: delayed cell growth for the first two weeks, but the cells continued to grow quickly after that; also recorded: initially sensitive to EGFR inhibitor erlotinib but develop secondary resistance within three weeks

## COc1cccc(OCCCN)c1-c1cc(Nc2cnc(C#N)cn2)n[nH]1 [prexasertib]
[13]
  difference in replication fork speed between treated ecDNA+ and ecDNA− cells: −0.1 kb/min

## C[C@@H]1COCCN1c1cc(C2([S@](C)(=N)=O)CC2)nc(-c2cc[nH]c3nccc2-3)n1 [AZD6738]
[2]
  sensitivity of Colo320 ecDNA+ compared with ecDNA− cells, proliferation changes: enhanced sensitivity
[4]
  cell growth (cell confluence), agent alone: did not affect HeLa cell growth
[4]; with 100 nM methotrexate, 3 weeks
  synthetic lethality with methotrexate: synthetic lethality
[5]
  sensitivity of Colo320 ecDNA+ compared with ecDNA− cells, viability changes: enhanced sensitivity

## CCN(CC)CCOc1ccc(Nc2ncc3cc(-c4c(Cl)cccc4Cl)c(=O)n(C)c3n2)cc1 [PD0166285]
[2]
  sensitivity of Colo320 ecDNA+ compared with ecDNA− cells, proliferation changes: enhanced sensitivity
[4]
  development of methotrexate resistance: abrogation of methotrexate resistance
[5]
  sensitivity of Colo320 ecDNA+ compared with ecDNA− cells, viability changes: enhanced sensitivity

## Cc1ccc(F)c([C@@H](C)[C@H](NS(=O)(=O)c2ccc(Cl)cc2C(N)=O)c2n[nH]c(=O)o2)c1C [compound 1, 5-chloro-2-(n-((1S,2R)-2-(6-fluoro-2,3-dimethylphenyl)-1-(5-oxo-4,5-dihydro-1,3,4-oxadiazol-2-yl)propyl)sulfamoyl)benzamide]
[8]
  induction of replication stress marker, phosphorylation at serine positions 317 and 345 of CHK1: induced the replication stress marker

## Nc1ccn([C@@H]2O[C@H](CO)[C@@H](O)C2(F)F)c(=O)n1 [gemcitabine]
[10]; Example 3, from average volume 350 mm^3, gemcitabine 10 mg/kg ip every other day or 120 mg/kg ip once per week
  tumor growth: only KRASi (adagrasib) resulted in a significant delay in tumor growth
[10]; Example 4, gemcitabine 10 or 20 mg/kg ip every other day
  tumor growth: substantial tumor growth
[14]; Example 3, tumors at day of sacrifice (D21 or D16)
  KRAS ecDNA level: no KRAS amplified ecDNA was seen
[14]; Example 4
  ecDNA copy number per metaphase spread where ecDNA present: 1-3 per metaphase spread
[14]; Example 4, treatment group 3
  metaphase spreads with little to no ecDNA: 78/95
[1]; from 290 mm^3, gemcitabine 10 mg/kg ip every other day
  tumor growth: inhibited tumor growth
[8]
  induction of replication stress marker, phosphorylation at serine positions 317 and 345 of CHK1: induced the replication stress marker
[15]
  fold enhanced sensitivity of ecDNA+ cell lines compared with ecDNA− cell lines: 5-10 fold
[13]
  difference in replication fork speed between treated ecDNA+ and ecDNA− cells: −0.13 kb/min
[11]
  cell growth / development of primary resistance: delayed cell growth for the first two weeks, but the cells continued to grow quickly after that
[12]
  cell growth / development of secondary resistance: delayed cell growth for the first two weeks, but the cells continued to grow quickly after that
